Laboratory results from ChEMBL document CHEMBL1201862, “PubChem BioAssay data set” (2004).
Activity calls are given as the source filed them.

Assays:
[1] = molecular target: Low molecular weight phosphotyrosine protein phosphatase (Homo sapiens, UniProt P24666); type: functional; conditions: read-out: IC50_Mean;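 also: Dose-response confirmation assay measuring inhibition of LMPTP enzyme activity by fluorescence intensity read-out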
Escherichia coli = experiment: microbe, parasite or virus in culture
Melanocortin receptor 4 [2] = molecular target: T1, Melanocortin receptor 4 (Homo sapiens, UniProt P32245); type: functional, cell-based;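 also: Cell-based assay with luminescence read-out, confirmatory dose-response testing for agonist activity of biased ligands at MC4R; human U2OS cells with tagged receptor and beta-arrestin; potency of agonists that increase receptor coupling to beta-arrestin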
T1 sequence (P32245 whole entry): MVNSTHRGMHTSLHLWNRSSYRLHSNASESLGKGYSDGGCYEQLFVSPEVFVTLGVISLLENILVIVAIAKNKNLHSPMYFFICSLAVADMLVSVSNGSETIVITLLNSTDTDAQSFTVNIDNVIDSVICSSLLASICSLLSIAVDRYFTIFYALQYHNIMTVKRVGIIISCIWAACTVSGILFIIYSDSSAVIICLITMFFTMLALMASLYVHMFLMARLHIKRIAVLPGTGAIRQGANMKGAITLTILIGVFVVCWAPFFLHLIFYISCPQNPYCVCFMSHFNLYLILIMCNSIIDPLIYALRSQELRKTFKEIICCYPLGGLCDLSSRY

Prothrombin = Prothrombin (Bos taurus, UniProt P00735); experiment: thrombin protease inhibitors – biochemical, fluorescence polarization, uHTS hits, dose response (AID 602369); type: functional
[3] = molecular target: 72 kDa type IV collagenase (Homo sapiens, UniProt P08253); experiment: Dose Response validation of uHTS RPN11 inhibitor hits using a MMP-2 Fluorescence assay.; type: functional
Sequence of 72 kDa type IV collagenase (P08253 whole entry, the tested form may be a part): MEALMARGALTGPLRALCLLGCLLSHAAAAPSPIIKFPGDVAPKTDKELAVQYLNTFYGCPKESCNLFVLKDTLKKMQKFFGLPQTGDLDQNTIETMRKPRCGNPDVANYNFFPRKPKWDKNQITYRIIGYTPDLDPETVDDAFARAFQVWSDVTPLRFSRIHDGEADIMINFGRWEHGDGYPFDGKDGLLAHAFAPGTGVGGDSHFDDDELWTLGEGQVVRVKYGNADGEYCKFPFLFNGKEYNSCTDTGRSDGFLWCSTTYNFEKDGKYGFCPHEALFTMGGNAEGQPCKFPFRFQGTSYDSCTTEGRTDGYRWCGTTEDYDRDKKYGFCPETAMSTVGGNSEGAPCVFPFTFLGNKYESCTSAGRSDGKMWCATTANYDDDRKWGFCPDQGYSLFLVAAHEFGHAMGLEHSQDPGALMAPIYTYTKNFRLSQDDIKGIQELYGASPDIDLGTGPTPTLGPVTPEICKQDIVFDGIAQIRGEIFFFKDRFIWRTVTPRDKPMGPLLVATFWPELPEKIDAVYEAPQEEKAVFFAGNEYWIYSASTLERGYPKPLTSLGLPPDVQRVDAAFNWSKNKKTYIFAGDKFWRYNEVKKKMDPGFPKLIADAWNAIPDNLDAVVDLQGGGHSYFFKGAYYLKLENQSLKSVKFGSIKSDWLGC

[4] = molecular target: T2, Carboxy-terminal domain RNA polymerase II polypeptide A small phosphatase 1 (Homo sapiens, UniProt Q9GZU7); experiment: CTDSP1 inhibitors, concentration-response, biochemical, absorbance readout, ultra-high-throughput screen actives (AID 540297); type: functional
T2 sequence (Q9GZU7 whole entry): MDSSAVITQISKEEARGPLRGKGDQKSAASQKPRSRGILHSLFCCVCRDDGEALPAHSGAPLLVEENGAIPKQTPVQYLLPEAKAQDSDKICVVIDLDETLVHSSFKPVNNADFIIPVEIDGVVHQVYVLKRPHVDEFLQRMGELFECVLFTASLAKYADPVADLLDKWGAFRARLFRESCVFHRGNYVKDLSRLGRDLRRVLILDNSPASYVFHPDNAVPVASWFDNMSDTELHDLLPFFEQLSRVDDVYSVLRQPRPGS

[5] = molecular target: 26S proteasome non-ATPase regulatory subunit 14 (Homo sapiens, UniProt O00487); experiment: inhibition of proteasome subunit RPN11 – biochemical, fluorescence polarization, uHTS hits, confirmation (AID 602368); type: functional
Sequence of 26S proteasome non-ATPase regulatory subunit 14 (O00487 whole entry): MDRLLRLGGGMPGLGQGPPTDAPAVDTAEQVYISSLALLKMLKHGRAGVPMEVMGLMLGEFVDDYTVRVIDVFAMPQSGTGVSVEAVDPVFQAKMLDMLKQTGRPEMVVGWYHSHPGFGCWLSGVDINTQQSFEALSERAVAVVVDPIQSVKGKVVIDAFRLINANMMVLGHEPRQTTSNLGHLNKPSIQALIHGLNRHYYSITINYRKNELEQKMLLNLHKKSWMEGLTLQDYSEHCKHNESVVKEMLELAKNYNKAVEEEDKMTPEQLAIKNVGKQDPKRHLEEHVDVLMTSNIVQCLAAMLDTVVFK

[6] = cAMP pathway inhibition in counterscreen cell line – TR-FRET cAMP detection, counter-screen for MC4R biased antagonist project, dose response (AID 602305); type: functional, cell-based;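 also: U2OS cells stimulated with forskolin near its EC80 as the cAMP inducer; potency is for inhibition of forskolin-stimulated cAMP signaling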
Streptococcus = experiment: GAS UMAA2166 growth inhibition – luminescence, BacTiterGlo, counter-screen for streptokinase expression inhibitor project, dose response (AID 1915); type: functional, organism-based; conditions: Streptococcus;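 also: potency for reduction of bacterial viability or growth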
Streptokinase A = molecular target: T3, Streptokinase A (Streptococcus pyogenes serotype M1, UniProt P10520); experiment: viability-normalized secreted streptokinase activity reduction – plasminogen activation absorbance, OD405, dose response (AID 1914); type: functional, Streptococcus pyogenes M1 GAS;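 also: secreted streptokinase activity via plasminogen activation per viability signal from cell pellet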
T3 sequence (P10520 whole entry): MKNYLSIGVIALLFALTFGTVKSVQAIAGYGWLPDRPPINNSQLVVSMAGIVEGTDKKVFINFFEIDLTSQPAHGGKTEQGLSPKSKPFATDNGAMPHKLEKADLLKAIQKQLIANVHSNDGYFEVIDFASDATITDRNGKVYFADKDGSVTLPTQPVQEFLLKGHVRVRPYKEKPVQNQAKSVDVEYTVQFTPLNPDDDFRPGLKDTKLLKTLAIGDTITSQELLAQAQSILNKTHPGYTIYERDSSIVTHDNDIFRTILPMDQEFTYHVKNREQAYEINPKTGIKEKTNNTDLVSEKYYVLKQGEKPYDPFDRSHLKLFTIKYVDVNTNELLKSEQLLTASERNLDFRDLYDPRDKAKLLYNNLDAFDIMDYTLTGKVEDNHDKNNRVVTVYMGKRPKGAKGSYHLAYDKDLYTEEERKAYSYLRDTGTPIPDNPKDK

[7] = system: Streptococcus sp. 'group A'; experiment: Streptococcus pyogenes SK(-)GAS viability under kanamycin – luminescence, BacTiterGlo, confirmation, counter-screen for streptokinase expression inhibitor project, dose response (AID 1900); type: functional, organism-based; conditions: Streptococcus sp. 'group A'
Melanocortin receptor 4 [8] = molecular target: T1, Melanocortin receptor 4; experiment: inhibitors of MC4R cAMP signaling – cell-based, TR-FRET, biased antagonists, dose response (AID 602298); type: functional;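 also: antagonist potency against agonist-stimulated cAMP production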
Genome polyprotein = Genome polyprotein (dengue virus type 2, UniProt P29990); experiment: flavivirus cap methylation enzyme inhibition – biochemical, confirmation dose response, primary screen (AID 588689); type: functional
Sequence of Genome polyprotein (P29990 2492-3391 limits assumed): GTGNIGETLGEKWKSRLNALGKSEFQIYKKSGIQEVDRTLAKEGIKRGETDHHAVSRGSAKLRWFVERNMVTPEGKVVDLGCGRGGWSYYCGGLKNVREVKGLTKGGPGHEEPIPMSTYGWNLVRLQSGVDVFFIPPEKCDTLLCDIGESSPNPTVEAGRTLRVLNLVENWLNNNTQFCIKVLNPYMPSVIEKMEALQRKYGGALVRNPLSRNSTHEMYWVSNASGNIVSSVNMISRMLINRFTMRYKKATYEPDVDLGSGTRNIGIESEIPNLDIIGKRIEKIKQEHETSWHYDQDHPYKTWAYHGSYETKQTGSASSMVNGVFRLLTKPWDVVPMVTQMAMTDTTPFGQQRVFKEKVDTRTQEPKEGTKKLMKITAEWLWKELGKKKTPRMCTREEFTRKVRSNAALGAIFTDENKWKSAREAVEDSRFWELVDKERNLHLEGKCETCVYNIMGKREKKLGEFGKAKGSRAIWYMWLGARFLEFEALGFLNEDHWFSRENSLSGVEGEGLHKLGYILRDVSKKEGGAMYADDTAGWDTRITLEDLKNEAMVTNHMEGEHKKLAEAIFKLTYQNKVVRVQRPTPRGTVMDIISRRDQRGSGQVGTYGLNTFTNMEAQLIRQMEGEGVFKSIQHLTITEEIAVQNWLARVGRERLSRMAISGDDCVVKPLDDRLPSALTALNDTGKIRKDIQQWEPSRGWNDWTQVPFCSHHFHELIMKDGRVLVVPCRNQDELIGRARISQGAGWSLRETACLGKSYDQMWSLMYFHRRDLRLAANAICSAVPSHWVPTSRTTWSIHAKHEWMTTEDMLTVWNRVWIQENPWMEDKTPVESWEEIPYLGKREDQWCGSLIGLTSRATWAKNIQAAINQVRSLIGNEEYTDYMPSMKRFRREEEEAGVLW

[9] = molecular target: T4, Histone-lysine N-methyltransferase NSD2 (Homo sapiens, UniProt O96028); type: biochemical
T4 sequence (O96028 whole entry): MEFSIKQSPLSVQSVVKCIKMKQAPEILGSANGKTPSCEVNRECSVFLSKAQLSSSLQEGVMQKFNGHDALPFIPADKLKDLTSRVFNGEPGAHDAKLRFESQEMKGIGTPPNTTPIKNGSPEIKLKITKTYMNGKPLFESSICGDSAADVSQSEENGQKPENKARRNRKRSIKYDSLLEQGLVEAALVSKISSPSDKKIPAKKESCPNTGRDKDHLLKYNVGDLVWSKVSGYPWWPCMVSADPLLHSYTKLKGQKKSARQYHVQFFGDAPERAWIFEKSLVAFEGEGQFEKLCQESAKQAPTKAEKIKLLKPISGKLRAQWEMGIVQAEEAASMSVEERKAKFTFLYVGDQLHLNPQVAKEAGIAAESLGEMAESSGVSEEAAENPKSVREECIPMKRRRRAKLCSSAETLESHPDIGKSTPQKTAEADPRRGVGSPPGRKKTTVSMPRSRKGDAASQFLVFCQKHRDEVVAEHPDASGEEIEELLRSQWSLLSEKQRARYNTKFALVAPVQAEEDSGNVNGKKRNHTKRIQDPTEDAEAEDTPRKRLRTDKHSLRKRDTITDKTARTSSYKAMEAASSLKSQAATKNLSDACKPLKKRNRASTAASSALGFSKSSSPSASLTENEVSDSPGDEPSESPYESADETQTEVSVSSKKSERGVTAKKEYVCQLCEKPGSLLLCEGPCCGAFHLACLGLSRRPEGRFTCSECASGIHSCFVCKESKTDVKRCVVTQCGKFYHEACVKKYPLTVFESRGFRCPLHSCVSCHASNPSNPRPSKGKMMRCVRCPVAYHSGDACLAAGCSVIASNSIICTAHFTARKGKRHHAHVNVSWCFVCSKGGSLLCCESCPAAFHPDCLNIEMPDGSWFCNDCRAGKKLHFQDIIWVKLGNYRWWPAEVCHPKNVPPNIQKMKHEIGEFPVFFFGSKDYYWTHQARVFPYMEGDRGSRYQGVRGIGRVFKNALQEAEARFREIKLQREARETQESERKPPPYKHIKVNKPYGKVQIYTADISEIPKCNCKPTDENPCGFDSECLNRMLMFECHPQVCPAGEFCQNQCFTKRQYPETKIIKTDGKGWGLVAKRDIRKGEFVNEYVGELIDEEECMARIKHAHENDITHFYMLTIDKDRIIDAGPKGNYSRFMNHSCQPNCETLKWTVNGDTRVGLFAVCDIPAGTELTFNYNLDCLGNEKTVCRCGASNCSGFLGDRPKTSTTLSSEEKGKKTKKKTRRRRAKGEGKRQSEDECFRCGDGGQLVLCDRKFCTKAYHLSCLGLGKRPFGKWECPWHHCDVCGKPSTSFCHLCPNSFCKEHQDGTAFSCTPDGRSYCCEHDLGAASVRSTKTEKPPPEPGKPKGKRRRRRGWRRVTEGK

[10] = molecular target: Eukaryotic translation initiation factor 4E (Mus musculus, UniProt P63073); experiment: blockers of eIF4G binding by eIF4E – biochemical, TR-FRET, dose response (AID 855); type: functional;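 also: potency for disrupting eIF4E binding to eIF4GI seen as loss of FRET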
Sequence of Eukaryotic translation initiation factor 4E (P63073 whole entry): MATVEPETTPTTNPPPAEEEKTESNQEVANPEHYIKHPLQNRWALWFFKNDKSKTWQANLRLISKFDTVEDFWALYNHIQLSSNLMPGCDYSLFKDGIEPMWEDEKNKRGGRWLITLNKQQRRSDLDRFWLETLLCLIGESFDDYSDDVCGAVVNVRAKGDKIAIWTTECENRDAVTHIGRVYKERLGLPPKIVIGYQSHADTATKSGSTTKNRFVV

Large T antigen = Large T antigen (Simian virus 40, UniProt P03070); type: functional, Betapolyomavirus macacae;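 also: Confirmatory-stage PubChem screen for compounds that inhibit SV40 T antigen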
Sequence of Large T antigen (P03070 whole entry): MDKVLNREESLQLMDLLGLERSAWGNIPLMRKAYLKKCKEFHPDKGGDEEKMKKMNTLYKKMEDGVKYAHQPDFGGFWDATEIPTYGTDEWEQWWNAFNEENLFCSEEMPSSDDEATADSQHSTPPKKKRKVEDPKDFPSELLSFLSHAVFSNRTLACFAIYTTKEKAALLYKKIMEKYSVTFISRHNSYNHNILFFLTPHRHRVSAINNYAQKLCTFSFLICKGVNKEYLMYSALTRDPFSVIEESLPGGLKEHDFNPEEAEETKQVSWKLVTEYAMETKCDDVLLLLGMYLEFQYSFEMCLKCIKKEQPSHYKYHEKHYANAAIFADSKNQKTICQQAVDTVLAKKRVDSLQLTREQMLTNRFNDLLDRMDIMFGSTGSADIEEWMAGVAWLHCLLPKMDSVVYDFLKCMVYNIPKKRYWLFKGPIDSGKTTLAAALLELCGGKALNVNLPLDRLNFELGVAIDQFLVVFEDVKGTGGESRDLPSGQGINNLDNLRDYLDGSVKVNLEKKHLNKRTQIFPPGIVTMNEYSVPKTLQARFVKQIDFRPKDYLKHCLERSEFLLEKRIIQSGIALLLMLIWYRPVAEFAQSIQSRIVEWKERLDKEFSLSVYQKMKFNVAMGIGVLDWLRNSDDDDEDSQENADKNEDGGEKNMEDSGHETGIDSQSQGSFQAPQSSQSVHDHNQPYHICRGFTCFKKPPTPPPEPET

[11] = molecular target: DNA (cytosine-5)-methyltransferase 1 (Homo sapiens, UniProt P26358); experiment: inhibition of DNA methylation by DNMT1 – biochemical, fluorescent molecular beacon, confirmation (AID 602386); type: functional
[12] = molecular target: Induced myeloid leukemia cell differentiation protein Mcl-1 (Homo sapiens, UniProt Q07820); type: functional
Sequence of Induced myeloid leukemia cell differentiation protein Mcl-1 (Q07820 whole entry): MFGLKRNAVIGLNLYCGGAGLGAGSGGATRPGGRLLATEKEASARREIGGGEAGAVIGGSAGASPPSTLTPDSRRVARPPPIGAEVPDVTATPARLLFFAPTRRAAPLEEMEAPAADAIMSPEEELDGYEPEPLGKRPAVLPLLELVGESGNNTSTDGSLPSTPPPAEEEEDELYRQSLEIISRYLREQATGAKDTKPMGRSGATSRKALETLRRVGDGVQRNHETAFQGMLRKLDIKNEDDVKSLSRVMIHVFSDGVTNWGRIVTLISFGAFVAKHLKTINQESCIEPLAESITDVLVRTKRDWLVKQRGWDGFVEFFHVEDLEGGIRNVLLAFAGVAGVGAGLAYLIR

[13] = molecular target: T5, Ubiquitin-conjugating enzyme E2 N (Homo sapiens, UniProt P61088); type: functional;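 also: Dose-response confirmation in a TR-FRET assay detecting UBC13-driven polyubiquitin chain formation, inhibition measured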
T5 sequence (P61088 whole entry): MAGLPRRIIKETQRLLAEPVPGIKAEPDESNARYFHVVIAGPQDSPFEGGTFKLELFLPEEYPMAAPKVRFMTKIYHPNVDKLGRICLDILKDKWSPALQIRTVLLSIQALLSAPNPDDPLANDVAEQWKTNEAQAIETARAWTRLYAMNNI

Aurora kinase B = Aurora kinase B (Homo sapiens, UniProt Q96GD4); type: functional
Sequence of Aurora kinase B (Q96GD4 whole entry): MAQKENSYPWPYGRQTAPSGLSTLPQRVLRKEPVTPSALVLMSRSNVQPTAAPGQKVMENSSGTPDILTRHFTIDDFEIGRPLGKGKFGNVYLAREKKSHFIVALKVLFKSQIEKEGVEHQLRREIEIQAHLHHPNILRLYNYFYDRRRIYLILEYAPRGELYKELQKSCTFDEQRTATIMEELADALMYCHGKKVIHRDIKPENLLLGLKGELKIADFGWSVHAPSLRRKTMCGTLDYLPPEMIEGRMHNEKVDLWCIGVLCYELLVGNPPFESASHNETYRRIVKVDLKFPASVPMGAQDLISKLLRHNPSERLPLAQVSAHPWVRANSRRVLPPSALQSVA

Aurora kinase A = Aurora kinase A (Homo sapiens, UniProt O14965); type: functional;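 also: value from the Navigating the Kinome kinase panel profiling, panel entry STK6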
Sequence of Aurora kinase A (O14965 whole entry): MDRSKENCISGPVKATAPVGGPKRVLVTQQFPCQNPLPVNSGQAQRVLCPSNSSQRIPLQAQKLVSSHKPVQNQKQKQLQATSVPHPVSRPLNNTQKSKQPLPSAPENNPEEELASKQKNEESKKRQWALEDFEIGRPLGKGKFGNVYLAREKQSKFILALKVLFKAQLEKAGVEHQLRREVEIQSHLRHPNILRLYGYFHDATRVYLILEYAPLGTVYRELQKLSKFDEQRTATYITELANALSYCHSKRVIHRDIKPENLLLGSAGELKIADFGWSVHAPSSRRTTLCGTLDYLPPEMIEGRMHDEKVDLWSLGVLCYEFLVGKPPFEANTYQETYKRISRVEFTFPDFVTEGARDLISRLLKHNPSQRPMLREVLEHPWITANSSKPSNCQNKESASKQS

[14] = molecular target: T6, Apoptotic protease-activating factor 1 (Homo sapiens, UniProt O14727); experiment: SAR analysis of small molecule Activators of Apaf-1 in a Fluorescent assay.; type: functional; conditions: read-out: EC50_Mean;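 also: caspase-3 cleavage of fluorogenic Rh110 DEVD substrate downstream of apoptosome activation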
T6 sequence (O14727 whole entry): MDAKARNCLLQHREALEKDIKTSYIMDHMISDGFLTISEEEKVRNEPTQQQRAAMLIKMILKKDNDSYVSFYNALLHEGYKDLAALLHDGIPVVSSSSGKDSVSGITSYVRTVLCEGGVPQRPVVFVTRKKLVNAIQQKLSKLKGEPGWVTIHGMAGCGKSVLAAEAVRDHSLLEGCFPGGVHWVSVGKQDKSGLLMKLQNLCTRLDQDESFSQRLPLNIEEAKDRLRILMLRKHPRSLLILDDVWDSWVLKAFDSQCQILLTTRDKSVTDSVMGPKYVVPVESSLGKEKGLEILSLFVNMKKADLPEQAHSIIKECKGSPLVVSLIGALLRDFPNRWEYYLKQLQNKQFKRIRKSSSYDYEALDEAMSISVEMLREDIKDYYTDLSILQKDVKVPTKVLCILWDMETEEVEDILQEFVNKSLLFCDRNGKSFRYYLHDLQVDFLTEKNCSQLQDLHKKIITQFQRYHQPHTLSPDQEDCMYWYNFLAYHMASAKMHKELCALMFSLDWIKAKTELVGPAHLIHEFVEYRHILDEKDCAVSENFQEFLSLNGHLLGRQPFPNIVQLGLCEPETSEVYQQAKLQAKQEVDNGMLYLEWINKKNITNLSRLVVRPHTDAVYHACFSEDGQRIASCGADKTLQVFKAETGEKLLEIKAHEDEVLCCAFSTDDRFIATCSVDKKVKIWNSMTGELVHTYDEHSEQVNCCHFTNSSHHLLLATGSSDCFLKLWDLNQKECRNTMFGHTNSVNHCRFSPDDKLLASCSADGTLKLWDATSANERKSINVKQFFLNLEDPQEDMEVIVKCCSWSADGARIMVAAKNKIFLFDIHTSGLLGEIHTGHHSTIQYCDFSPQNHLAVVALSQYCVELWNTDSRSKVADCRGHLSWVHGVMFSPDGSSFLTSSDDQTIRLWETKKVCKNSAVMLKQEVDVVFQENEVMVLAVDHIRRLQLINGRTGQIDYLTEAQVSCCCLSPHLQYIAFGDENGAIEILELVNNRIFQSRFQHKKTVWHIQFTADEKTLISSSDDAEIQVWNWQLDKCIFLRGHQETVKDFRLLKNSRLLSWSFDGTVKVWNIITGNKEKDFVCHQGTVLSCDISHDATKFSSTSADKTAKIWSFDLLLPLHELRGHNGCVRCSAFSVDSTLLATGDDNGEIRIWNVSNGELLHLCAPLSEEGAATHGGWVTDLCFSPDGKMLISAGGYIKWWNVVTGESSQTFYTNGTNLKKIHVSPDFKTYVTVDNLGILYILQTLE

Sequence of Low molecular weight phosphotyrosine protein phosphatase (P24666 whole entry): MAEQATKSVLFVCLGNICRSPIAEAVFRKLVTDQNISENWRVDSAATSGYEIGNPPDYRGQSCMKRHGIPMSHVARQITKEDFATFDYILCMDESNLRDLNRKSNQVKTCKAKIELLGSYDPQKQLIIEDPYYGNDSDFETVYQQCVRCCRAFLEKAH

SMILES: CCn1cc(C(=O)O)c(=O)c2cc(F)c(N3CCN(C(=S)NC(=O)c4ccccc4C)CC3)cc21
- IC50 [1]: 7.19 µM (active)
- AC50 (Escherichia coli): 8.2 µM (active)

SMILES: O=C(CSc1ccccc1)Nc1nnc(/C=C/c2ccccc2)s1
- EC50 (Melanocortin receptor 4 [2]): > 89.2 µM (inactive)

SMILES: Cc1ccc(-n2nnc3c(=O)n(CC(=O)NCc4ccccc4)cnc32)cc1
- IC50 (Prothrombin): > 100 µM (inactive)
- IC50 [3]: 12.7 µM (active)
- IC50 [4]: 5.33 µM (active)
- IC50 [5]: 24.8 µM (active)

SMILES: COc1ccc(-c2oc3ccc(N4CCOCC4)cc3c2C#CC2(O)CCCCC2)cc1
- IC50 [6]: > 64.6 µM (inactive)
- EC50 (Streptococcus): 8.25 µM (active)
- EC50 (Streptokinase A): > 150 µM (not active)
- EC50 [7]: 3.68 µM (active)
- IC50 (Melanocortin receptor 4 [8]): > 64.6 µM (inactive)

SMILES: O=C1NN(c2ccc(Cl)cc2)C(=O)/C1=C\c1ccc(-c2cccc(C(=O)O)c2)o1
- IC50 (Prothrombin): 19.8 µM (active)
- IC50 [3]: 56.7 µM (active)
- IC50 (Genome polyprotein): 77.3 µM (active)
- AC50 [9]: > 20 µM (inactive)
- IC50 [10]: 50 µM (inactive)
- IC50 (Large T antigen): 27.1 µM (active)
- IC50 [11]: 7.39 µM (active)
- IC50 [12]: 3.21 µM (active)
- IC50 [5]: 10.9 µM (active)

SMILES: CC(C)[C@H](CN1CCC[C@H]1CN1C(N)=NC[C@H]1C(C)C)N1C[C@@H](Cc2ccccc2)N(CCCC2CCCC2)C1=N
- IC50 [13]: > 20 µM (inactive)
- IC50 [6]: > 64.5 µM (inactive)
- IC50 (Melanocortin receptor 4 [8]): 17.7 µM (inactive)

SMILES: COCCOC1CCC(n2nc(-c3ccc(Nc4nc5cc(Cl)cc(C)c5o4)c(F)c3)c3c(N)ncnc32)CC1 (configuration not stated)
- Ki (Aurora kinase B): 0.00794 µM (active)
- Ki (Aurora kinase A): 0.126 µM (active)

SMILES: CC(CNc1ccccc1Cl)C(=O)O (configuration not stated)
- EC50 [14]: > 100 µM (inactive)
